Measured values from US10865191B2, “Heterocyclic compounds useful as modulators of TNF alpha” (BRISTOL-MYERS SQUIBB COMPANY, priority 2015, dated 2020).

Each molecule was assayed against TNFα (Homo sapiens, UniProt P01375) (assay: TNF induced HEK-Blue assay (NF-kB-driven secreted alkaline phosphatase reporter)). Settings: TNF induced HEK-Blue assay IC50 value, TNFα 0.5 ng/mL, HEK-Blue-CD40L cells, 18 h.
Format: cell-based
Method in brief: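 HEK-Blue-CD40L cells (NF-kB-driven SEAP reporter), 20,000/well, added after 30 min pre-incubation of compound (0.004–25 μM final) with TNFα 0.5 ng/mL final at 37 °C; 18 h incubation. SEAP read with QUANTI-Blue at 620 nm; IC50 from 4-parameter logistic fit, normalized to unstimulated and stimulated DMSO controls.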

Sequence of TNFα (P01375 77-233 limits assumed): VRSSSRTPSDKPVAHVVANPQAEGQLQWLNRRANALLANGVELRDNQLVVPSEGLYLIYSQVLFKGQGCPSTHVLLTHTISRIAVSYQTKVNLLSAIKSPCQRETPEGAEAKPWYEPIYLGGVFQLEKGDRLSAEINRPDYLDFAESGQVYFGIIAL

Row | IC50 | Structure (SMILES)
1 | < 1000 nM | CCC(Nc1c(Cl)cnc2ccc(-c3cnc(C(C)(C)O)nc3)cc12)c1ccccc1F (racemic) [Example 190, 2-(5-(3-chloro-4-((1-(2-fluorophenyl)propyl)amino)quinolin-6-yl)pyrimidin-2-yl)propan-2-ol]

Same assay, conditions: TNFα 0.5 ng/mL, HEK-Blue-CD40L cells, 18 h; read-out: TNF induced HEK-Blue assay IC50 value

Row | Structure (SMILES) | IC50
2 | CC(Nc1c(Cl)cnc2ccc(-c3ccc(C(C)(C)O)cc3)cc12)c1ccon1 (racemic) [Example 174, 2-(4-(3-chloro-4-((1-(isoxazol-3-yl)ethyl)amino)quinolin-6-yl)phenyl)propan-2-ol] | 10000 to 25000 nM
3 | Cc1ccnc(C(C)Nc2c(Cl)cnc3ccc(-c4ccc(C(C)(C)O)cc4)cc23)n1 (racemic) [Example 178, 2-(4-(3-chloro-4-((1-(4-methylpyrimidin-2-yl)ethyl)amino)quinolin-6-yl)phenyl)propan-2-ol] | < 1000 nM
4 | CC(Nc1c(Cl)cnc2ccc(-c3ccc(C(C)(C)O)cc3)cc12)c1ncco1 (racemic) [Example 179, 2-(4-(3-chloro-4-((1-(oxazol-2-yl)ethyl)amino)quinolin-6-yl)phenyl)propan-2-ol] | < 1000 nM
5 | CC(C)(O)c1ncc(-c2ccc3ncc(Cl)c(NC(c4ccccc4F)C4CC4)c3c2)cn1 (racemic) [Example 191, 2-(5-(3-chloro-4-((cyclopropyl(2-fluorophenyl)methyl)amino)quinolin-6-yl)pyrimidin-2-yl)propan-2-ol] | < 1000 nM
6 | CC(Nc1c(Cl)cnc2ccc(-c3ccc(C(C)(C)O)cc3)cc12)c1ccco1 (racemic) [Example 192, 2-(4-(3-chloro-4-((1-(furan-2-yl)ethyl)amino)quinolin-6-yl)phenyl)propan-2-ol] | < 1000 nM
7 | CC(Nc1c(Cl)cnc2ccc(-c3ccc(C(C)(C)O)cc3)cc12)c1nccs1 (racemic) [Example 194, 2-(4-(3-chloro-4-((1-(thiazol-2-yl)ethyl)amino)quinolin-6-yl)phenyl)propan-2-ol] | < 1000 nM
8 | CC(Nc1c(Cl)cnc2ccc(-c3ccc(C(C)(C)O)cc3)cc12)c1ccnn1C (racemic) [Example 195, 2-(4-(3-chloro-4-((1-(1-methyl-1H-pyrazol-5-yl)ethyl)amino)quinolin-6-yl)phenyl)propan-2-ol] | 10000 to 25000 nM

Second part, the molecule after the results:

Row | IC50 | Structure (SMILES)
9 | 1000 to 10000 nM | CC(Nc1c(Cl)cnc2ccc(-c3ccc(C(C)(C)O)cc3)cc12)c1ccncn1 (racemic) [Example 173, 2-(4-(3-chloro-4-((1-(pyrimidin-4-yl)ethyl)amino)quinolin-6-yl)phenyl)propan-2-ol]
10 | < 1000 nM | CC(Nc1c(Cl)cnc2ccc(-c3ccc(C(C)(C)O)cc3)cc12)c1ccccn1 (racemic) [Example 175, 2-(4-(3-chloro-4-((1-(pyridin-2-yl)ethyl)amino)quinolin-6-yl)phenyl)propan-2-ol]
11 | < 1000 nM | CC(Nc1c(Cl)cnc2ccc(-c3ccc(C(C)(C)O)cc3)cc12)c1ccncc1 (racemic) [Example 176, 2-(4-(3-chloro-4-((1-(pyridin-4-yl)ethyl)amino)quinolin-6-yl)phenyl)propan-2-ol]
12 | < 1000 nM | CC(Nc1c(Cl)cnc2ccc(-c3ccc(C(C)(C)O)cc3)cc12)c1ncccn1 (racemic) [Example 177, 2-(4-(3-chloro-4-((1-(pyrimidin-2-yl)ethyl)amino)quinolin-6-yl)phenyl)propan-2-ol]
13 | < 1000 nM | CC(Nc1c(Cl)cnc2ccc(-c3ccc(C(C)(C)O)cc3)cc12)c1ccsc1 (racemic) [Example 196, 2-(4-(3-chloro-4-((1-(thiophen-3-yl)ethyl)amino)quinolin-6-yl)phenyl)propan-2-ol]
14 | 10000 to 25000 nM | CC(Nc1c(Cl)cnc2ccc(-c3ccc(C(C)(C)O)cc3)cc12)c1cnn(C)c1 (racemic) [Example 197, 2-(4-(3-chloro-4-((1-(1-methyl-1H-pyrazol-4-yl)ethyl)amino)quinolin-6-yl)phenyl)propan-2-ol]
15 | < 1000 nM | CC(Nc1c(Cl)cnc2ccc(-c3ccc(C(C)(C)O)cc3)cc12)c1cnccn1 (racemic) [Example 198, 2-(4-(3-chloro-4-((1-(pyrazin-2-yl)ethyl)amino)quinolin-6-yl)phenyl)propan-2-ol]
